Measured values from patent publication US12043599B2, “Herbicidal compounds” (SYNGENTA PARTICIPATIONS AG, priority 2018, dated 2024).

What was measured:
Format in all cases: in vivo
Conditions in all cases: 250 g/h, evaluated after 13 days
Setaria faberi (SETFA) [1] = assay: Pre-emergence herbicidal glasshouse test, percentage damage
Outline: (§1)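 Percentage damage, read 13 days after treatment and banded into five classes (1=0-19% up to 5=80-100%). Plants in pots of standard soil received 250 g/h as a spray from acetone/water (50:50) containing 0.5% Tween 20. Application was one day (pre-emergence) or eight days (post-emergence) after sowing.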

[2] = system: Alopecurus myosuroides (ALOMY); assay: as above
Outline: as §1

Lolium perenne (LOLPE) [3] = assay: as above
Outline: as §1

Avena fatua (AVEFA) [4] = assay: as above
Outline: as §1

[5] = system: Echinochloa crus-galli (ECHCG); assay: as above
Outline: as §1

[6] = system: Alopecurus myosuroides (ALOMY); assay: Post-emergence herbicidal glasshouse test, percentage damage
Outline: as §1

Lolium perenne (LOLPE) [7] = assay: as above
Outline: as §1

Avena fatua (AVEFA) [8] = assay: as above
Outline: as §1

[9] = system: Echinochloa crus-galli (ECHCG); assay: as above
Outline: as §1

Setaria faberi (SETFA) [10] = assay: as above
Outline: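 Wheat, barley and Setaria faberi were sprayed post-emergence after 8 days' growth (24/16 °C, 14 h light, 65% humidity) with compound in acetone/water (50:50) containing 0.5% Tween 20, at the indicated rates. On wheat, compounds were also applied with cloquintocet-mexyl at 50 g/ha. Damage was scored after 13 days on a five-point scale (5=80-100% to 1=0-19%).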

| Compound | SETFA PRE percentage damage (five point scale) (Setaria faberi (SETFA) [1]) | ALOMY PRE percentage damage (five point scale) [2] | LOLPE PRE percentage damage (five point scale) (Lolium perenne (LOLPE) [3]) | AVEFA PRE percentage damage (five point scale) (Avena fatua (AVEFA) [4]) | ECHCG PRE percentage damage (five point scale) [5] | ALOMY POST percentage damage (five point scale) [6] | LOLPE POST percentage damage (five point scale) (Lolium perenne (LOLPE) [7]) | AVEFA POST percentage damage (five point scale) (Avena fatua (AVEFA) [8]) | ECHCG POST percentage damage (five point scale) [9] | SETFA POST percentage damage (five point scale) (Setaria faberi (SETFA) [10]) |
| --- | --- | --- | --- | --- | --- | --- | --- | --- | --- | --- |
| CC#Cc1cc(C)c(C2C(=O)CC3(CCN(C(=O)C4=NOCC4)CC3)CC2=O)c(C)c1 [Compound A88] | 5 (5=80-100%) | 5 (5=80-100%) | 5 (5=80-100%) | 5 (5=80-100%) | 5 (5=80-100%) | 5 (5=80-100%) | 5 (5=80-100%) | 5 (5=80-100%) | 5 (5=80-100%) | 5 (5=80-100%) |
| CC#Cc1cc(C)c(C2=C(OC(=O)OC)CC3(CCN(C(=O)COC)CC3)CC2=O)c(C)c1 [Compound P19] | 5 (5=80-100%) | 5 (5=80-100%) | 5 (5=80-100%) | 5 (5=80-100%) | 5 (5=80-100%) | 5 (5=80-100%) | 5 (5=80-100%) | 5 (5=80-100%) | 5 (5=80-100%) | 5 (5=80-100%) |
| CC#Cc1cc(C)c(C2C(=O)CC3(CCN(S(=O)(=O)C4COC4)CC3)CC2=O)c(C)c1 [Compound A83] | 5 (5=80-100%) | 5 (5=80-100%) | 5 (5=80-100%) | 4 (4=60-79%) | 5 (5=80-100%) | 5 (5=80-100%) | 5 (5=80-100%) | 5 (5=80-100%) | 5 (5=80-100%) | 5 (5=80-100%) |
| CC#Cc1cc(C)c(C2C(=O)CC3(CCN(C(=O)c4cc(C(F)(F)F)ccn4)CC3)CC2=O)c(C)c1 [Compound A90] | 5 (5=80-100%) | 5 (5=80-100%) | 5 (5=80-100%) | 5 (5=80-100%) | 5 (5=80-100%) | 5 (5=80-100%) | 5 (5=80-100%) | 5 (5=80-100%) | 5 (5=80-100%) | 5 (5=80-100%) |
| CC#Cc1cc(C)c(C2C(=O)CC3(CCN(S(=O)(=O)CC)CC3)CC2=O)c(OC)c1 [Compound A72] | 5 (5=80-100%) | 5 (5=80-100%) | 5 (5=80-100%) | 5 (5=80-100%) | 5 (5=80-100%) | 5 (5=80-100%) | 5 (5=80-100%) | 5 (5=80-100%) | 5 (5=80-100%) | 5 (5=80-100%) |
| CC#Cc1cc(C)c(C2C(=O)CC3(CCN(C(=O)COC(C)(C)C)CC3)CC2=O)c(C)c1 [Compound A185] | 5 (5=80-100%) | 5 (5=80-100%) | 5 (5=80-100%) | 4 (4=60-79%) | 5 (5=80-100%) | 5 (5=80-100%) | 5 (5=80-100%) | 5 (5=80-100%) | 5 (5=80-100%) | 5 (5=80-100%) |
| CC#Cc1cc(C)c(C2C(=O)CC3(CCN(C(=O)CC4OCCO4)CC3)CC2=O)c(C)c1 [Compound A151] | 5 (5=80-100%) | 5 (5=80-100%) | 5 (5=80-100%) | 5 (5=80-100%) | 5 (5=80-100%) | 5 (5=80-100%) | 5 (5=80-100%) | 5 (5=80-100%) | 5 (5=80-100%) | 5 (5=80-100%) |
| CC#Cc1cc(C)c(C2C(=O)CC3(CCN(C(=O)Cc4cnccn4)CC3)CC2=O)c(C)c1 [Compound A104] | 5 (5=80-100%) | 4 (4=60-79%) | 5 (5=80-100%) | 5 (5=80-100%) | 5 (5=80-100%) | 5 (5=80-100%) | 5 (5=80-100%) | 5 (5=80-100%) | 5 (5=80-100%) | 5 (5=80-100%) |
| CC#Cc1cc(C)c(C2=C(OC(=O)OC)CC3(CCN(C(=O)COCC)CC3)CC2=O)c(C)c1 [Compound P51] | 5 (5=80-100%) | 5 (5=80-100%) | 5 (5=80-100%) | 5 (5=80-100%) | 5 (5=80-100%) | 5 (5=80-100%) | 5 (5=80-100%) | 5 (5=80-100%) | 5 (5=80-100%) | 5 (5=80-100%) |
| CC#Cc1cc(C)c(C2C(=O)CC3(CCN(C(=O)CC#N)CC3)CC2=O)c(OC)c1 [Compound A80] | 5 (5=80-100%) | 5 (5=80-100%) | 5 (5=80-100%) | 5 (5=80-100%) | 5 (5=80-100%) | 5 (5=80-100%) | 5 (5=80-100%) | 5 (5=80-100%) | 5 (5=80-100%) | 5 (5=80-100%) |
| CC#Cc1cc(C)c(C2C(=O)CC3(CCN(C(=O)COC)CC3)CC2=O)c(OC)c1 [Compound A75] | 5 (5=80-100%) | 5 (5=80-100%) | 5 (5=80-100%) | 5 (5=80-100%) | 5 (5=80-100%) | 5 (5=80-100%) | 5 (5=80-100%) | 5 (5=80-100%) | 5 (5=80-100%) | 5 (5=80-100%) |
| CC#Cc1cc(C)c(C2=C(OC(=O)OC)CC3(CCN(C(=O)NC4CC4)CC3)CC2=O)c(C)c1 [Compound P15] | 5 (5=80-100%) | 5 (5=80-100%) | 5 (5=80-100%) | 5 (5=80-100%) | 5 (5=80-100%) | 5 (5=80-100%) | 5 (5=80-100%) | 5 (5=80-100%) | 5 (5=80-100%) | 5 (5=80-100%) |
| CC#Cc1cc(C)c(C2C(=O)CC3(CCN(C(=O)c4ccncn4)CC3)CC2=O)c(C)c1 [Compound A18] | 5 (5=80-100%) | 5 (5=80-100%) | 5 (5=80-100%) | 5 (5=80-100%) | 5 (5=80-100%) | 5 (5=80-100%) | 5 (5=80-100%) | 5 (5=80-100%) | 5 (5=80-100%) | 5 (5=80-100%) |
| CC#Cc1cc(C)c(C2=C(OS(=O)(=O)c3ccccn3)CC3(CCN(S(=O)(=O)c4ccccn4)CC3)CC2=O)c(C)c1 [Compound P17] | 4 (4=60-79%) | 5 (5=80-100%) | 4 (4=60-79%) | 3 (3=40-59%) | 5 (5=80-100%) | 5 (5=80-100%) | 5 (5=80-100%) | 5 (5=80-100%) | 5 (5=80-100%) | 5 (5=80-100%) |
